{"source": "patent US20060216342A1", "about": "“Micelle delivery system loaded with a pharmaceutical agent” (priority 2003, published 2006)", "key": {"[1]": {"system": "LLC tumors", "assay": "Inhibition of LLC tumor growth in mice with different taxol preparations", "assay_type": "in vivo", "details": "ca. 100 μg taxol per injection, two injections, twenty days after first injection, untreated 2.00±0.60 g", "experimental": "Inhibition of tumor growth with different taxol preparations. Mice with LLC tumors were injected with different taxol formulations on day 10 post inoculation (ca. 100 μg of taxol per animal per injection). On day 5 after the first administration, the injections were repeated. Twenty days after the first injection, the mice were sacrificed; tumors extracted, rinsed twice with saline, wiped, and weighed. There were five mice in each experimental group."}, "[2]": {"assay": "Micelle size by dynamic light scattering and freeze-fracture electron microscopy", "assay_type": "physicochemical", "details": "PEG-PE micelles with vs without tamoxifen", "experimental": "When required, 0.5 ml of a 12 μM solution of 2C5 or 2G4 in borate, pH 9.0 was added to 0.5 ml of pNP-PEG-PE-containing micelles with a PEG-PE concentration of 1.5 mM. The mixture was incubated for 3 h at room temperature (RT) and dialyzed against HBS, using cellulose ester membranes with a cut-off size of 300,000 Da (Spectrum Medical Industries, Rancho Dominguez, Calif.). To assess the quantity of the micelle-bound protein, CF-labeled antibody was used. Protein concentration was measured by associated fluorescence at an excitation wavelength of 490 nm and an emission of 520 nm on a F-2000 spectrofluorimeter (Hitachi, Japan). The micelle size was measured by dynamic light scattering using a N4 Plus Submicron Particle System (Coulter Corporation, Miami, Fla.) at PEG-PE concentration of 2-10 mM.\nFreeze-fracture electron microscopy. The sample was quenched using the sandwich technique and liquid nitrogen-cooled propane. A cooling rate of 10,000K/sec avoids ice crystal formation and cryofixation-caused artifacts. The fracturing process was carried out in JEOL JED-9000 freeze-etching equipment (Jeol, Peabody, Mass.) and the exposed fracture planes were shadowed with Pt for 30 sec at an angle of 25-35 degrees followed with carbon for 35 sec (2 kV, 60-70 mA, 1×10^−5 Torr). […]"}, "[3]": {"assay": "Encapsulation of tamoxifen into PEG-PE micelles", "assay_type": "physicochemical", "details": "drug/PEG-PE molar ratio 1:1, after 0.22 μm filtration", "experimental": "Tamoxifen dissolved in methanol was added to the solution of PEG-PE in chloroform to obtain the drug/PEG-PE molar ratio of 1:1. Organic solvents were evaporated and micelles were formed by shaking the tamoxifen/PE-PEG film obtained in the presence of an aqueous buffer at 50° C. Free tamoxifen was removed by filtration through 0.22 μm filters. Tamoxifen was quantified using the assay procedure for diethylstilbesterol (United States Pharmacopeal Convention, 2000)."}, "[4]": {"assay": "Incorporation of porphyrin into PEG-PE micelles", "assay_type": "physicochemical", "experimental": "Porphyrin dissolved in methanol was added to a solution of PEG-PE in chloroform to obtain various final ratios of components. Organic solvents were removed under vacuum. Micelles were formed by shaking the PEG-PE/porphyrin film obtained in the presence of an aqueous buffer. Excess of porphyrin not incorporated into the micelles was separated by filtration of the micelle suspension through 0.2 μm filter. Concentration of porphyrin in micellar phase was estimated following the fluorescence at the excitation wavelength of […] and the emission wavelength of 674 nm (F635/674) after 100-200-fold dilution of the samples in methanol."}}}
{"compound": "CC(=O)O[C@H]1C(=O)[C@@]2(C)[C@H]([C@H](OC(=O)c3ccccc3)[C@]3(O)C[C@H](OC(=O)[C@H](O)[C@@H](NC(=O)c4ccccc4)c4ccccc4)C(C)=C1C3(C)C)[C@]1(OC(C)=O)CO[C@@H]1C[C@@H]2O", "note": "[free taxol, paclitaxel]", "values": [{"measurement": "average weight of excised tumors", "setting": "[1]", "result": "1.58 ± 0.48", "unit": "g"}]}
{"compound": "CC/C(=C(\\c1ccccc1)c1ccc(OCCN(C)C)cc1)c1ccccc1", "note": "[tamoxifen]", "values": [{"measurement": "effect of drug incorporation on micelle size", "setting": "[2]", "result": "does not change the size of the micelles significantly"}, {"measurement": "tamoxifen incorporated into PEG-PE micelles", "setting": "[3]", "result": "more than 95%"}]}
{"compound": "chlorin e6 trimethyl ester [porphyrin]", "values": [{"measurement": "efficiency of incorporation into micelles", "setting": "[4]; initial porphyrin/PEG-PE weight ratio of 1/2", "result": "about 80%"}, {"measurement": "efficiency of incorporation into micelles", "setting": "[4]; initial porphyrin/PEG-PE weight ratio of up to 1/5", "result": "~100", "unit": "%"}, {"measurement": "drug/PEG-PE in the resultant micelles", "setting": "[4]; initial weight ratio of 1/2", "result": "2/5"}]}
